Laboratory results taken from patent US9302993B2, “8-hydroxy quinoline derivatives” (PRANA BIOTECHNOLOGY LIMITED, priority 2002, dated 2016).

Columns and labels:
[1] = test system: Neuronal cortical cells; experiment: Assay for test compound cytoxicity, MTS (Assay 3(d)); format: cell-based, mouse; details: BL6J×129sv, mouse, 4 days
[2] = test system: Aβ in extract of tissue from post mortem human AD brain; experiment: Human brain amyloid solubilisation assay (Assay 9, BAS); format: biochemical; details: solubilising plaques relative to PBS
Method in brief: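 Plaque-bearing post mortem AD cortex homogenised in ice-cold PBS pH 7.4 and spun 100,000×g, 30 min to separate PBS-soluble supernatant from insoluble pellet. Aβ in each fraction resolved on Tris-Tricine 10-20% gels, immunoblotted with W02 antibody and ECL, quantified by densitometry against synthetic Aβ40 standards (0.5, 1, 2 ng).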

[3] = Blood brain barrier penetration, brain perfusion (Assay 14); format: in vivo; details: rat brain perfusion, 50 μM, 1.5 minutes
Method: Assay 14. Blood Brain Barrier Penetration
A trace amount of ^14C-sucrose was added to each stock infusion solution (approx 0.01 μCi/mL) to act as Blood-Brain Barrier (BBB)-impermeable marker in order to assess the integrity of the BBB during each perfusion and to estimate the volume of the residual vascular space (RVS) in samples of brain tissue (ie: the volume of fluid remaining inside the lumen of blood vessels at the end of each perfusion).
The right common carotid artery was surgically exposed and cannulated for perfusion of the cerebral circulation. The right external carotid artery (which supplies tissues outside the skull) was then ligated distal to its bifurcation from the right common carotid artery so that all of the infusion solution would pass into the brain via the remaining right internal carotid artery. The heart was then exposed and transected immediately prior to the commencement of the infusion. […] The infusion cannula initially contained a 0.5 mL pre-wash of heparinised PBS (10 IU/ml) that acts to flush blood vessels and to prevent blood from clotting and blocking small vessels.
After 1.5 minutes, the infusion pump automatically stopped, the cannula was withdrawn from the carotid artery and a sample of the infusion solution (1-1.5 mL) was then collected from the tip of the infusion cannula. The brain was then dissected free and divided into 3 parts; the right hemisphere together with the right midbrain, the left hemisphere together with the left midbrain and the hindbrain (cerebellum, pons and brainstem). Only the right part of the brain was used for subsequent measurements because perfusion via the right internal carotid artery preferentially supplies the right hemisphere and right midbrain (the left hemisphere and hindbrain receive a variable collateral perfusion). The brain tissue samples from each animal were frozen at −30° C., homogenized and weighed aliquots analysed by LC-MS to give total brain concentration. The analysis was carried out using the Micromass Triple Quad instrument. The mobile phase consisted of an acetonitrile/water gradient (containing 0.05% Formic acid) and the column was a Phenomenex Luna CN.
Small aliquots from each brain tissue sample and the corresponding infusion solution were analysed by liquid scintillation counting to determine the level of ^14C-sucrose. The residual vascular space (RVS) in each brain tissue sample was calculated by dividing the measured concentration of sucrose in brain tissue (dpm/mg) by its concentration in the corresponding infusion solution (dpm/μL). This is the volume of fluid that remains inside blood vessels at the end of each perfusion. […]
A total of 5-6 brain perfusion experiments were performed for each of the test compounds and mean brain uptake ratios were calculated.

Compound: CN(C)Cc1ccc2c(Cl)cc(Cl)c(O)c2n1.Cl [compound 1033, 5,7-Dichloro-2-dimethylaminomethyl-quinolin-8-ol hydrochloride]
- Test Compound Cytoxicity 1 uM [1]: 80
- Test Compound Cytoxicity 10 uM [1]: 70
- BAS Score [2]: +
- Uptake Ratio [3]: >50%

Compound: O=C(NCCc1c[nH]cn1)c1ccc2c(Cl)cc(Cl)c(O)c2n1 [compound 1038, 5,7-Dichloro-8-hydroxyquinoline-2-carboxylic acid [2-(1H-imidazol-4-yl)-ethyl]-amide]
- Test Compound Cytoxicity 1 uM [1]: 93
- Test Compound Cytoxicity 10 uM [1]: 83
- BAS Score [2]: +
- Uptake Ratio [3]: >50%

Compound: Cn1cnc(CCNC(=O)c2ccc3c(Cl)cc(Cl)c(O)c3n2)c1 [compound 1050, 5,7-dichloro-8-hydroxyquinoline-2-carboxylic acid [2-(1-methyl-1H-imidazol-4-yl)-ethyl]-amide]
- Test Compound Cytoxicity 1 uM [1]: 93
- Test Compound Cytoxicity 10 uM [1]: 88
- Uptake Ratio [3]: >50%

Compound: CCNCc1ccc2c(Cl)cc(Cl)c(O)c2n1.Cl [compound 1051, 5,7-dichloro-2-ethylaminomethyl-quinolin-8-ol hydrochloride]
- Test Compound Cytoxicity 1 uM [1]: 87
- Test Compound Cytoxicity 10 uM [1]: 56
- BAS Score [2]: +
- Uptake Ratio [3]: >50%
